Source: patent publication US8058442B2 (Technion Research and Development Foundation Ltd., priority 2002, dated 2011)
Read-outs that look alike come from different tables or passages of the source.

Assays:
[1] = n-octanol/water shake-flask distribution coefficient; type: physicochemical
From the text: The partition coefficient (Pow) or the distribution ratio (Dow) between octanol and water are most commonly used measures of the hydrophobicity of compounds. Dow can depend on the concentration of solute, but at reasonably low concentrations. If the solute is in the same form in both phases, Dow becomes constant and is called the partition coefficient Pow. Pow plays an important role in determining the physico-chemical properties and the behaviour of numerous organic compounds in biological systems. Pow is applied to quantitative structure-activity relationship studies, and as a measure of hydrophobicity. All the partition measurements are carried out using a 1-octanol/water shake-flask procedure (Leo, A J. 1991, “Hydrophobic parameter: measurement and calculation”, Methods Enzymol. 202:544-91) or simply by the elution time of solute from HPLC column. Thereafter, the transport properties of the iron-complexes are examined in the water/lipid membrane system (liposomes), which mimics biomembranes much better than the octanol/water system (Breuer et al, 1995).
1-Octanol (Riedel-deHaën, synthesis grade (250-270 nm abs.<0.06) and glass distilled deionized water were used as the partitioning solutions. A Hewlett-Packard 8450A diode array spectrophotometer was used for the quantitative determination of the tested com-pounds in the standard solutions and in the partitioned solutions. The aqueous phase stock solutions were shaken with an excess of 1-octanol to presaturate them and were then allow-ed to stand overnight before use. The 1-octanol stock solutions were also presaturated with 10 mM NaOH and allowed to settle overnight. The experiments were performed in 10-ml stoppered centrifuge tubes. The tubes were inverted gently for 5 min and then, to assure complete phase separation, they were centrifuged for 20 min at 1,000-2,000 g. The aqueous and organic phases were removed separately and analyzed by UV spectrophotometry.
Lipophilicity plays an important role in drug absorption and distribution. The logarithm of the n-octanol/water distribution coefficients (logD) is the most commonly used measure of the lipophilicity of a drug candidate. Here we used an n-octanol/water shake-flask procedure to determine logD. […] In acidic and basic solution, all the test compounds have low log D values, which refer to a good hydrophilicity. This can be explained by the formation of oxinium chloride (in acid) and sodium oxinate (in base) derivatives.

rat brain MAO-A = target: T1, rat brain MAO-A (Rattus norvegicus, UniProt P21396); assay: In vitro inhibition of rat brain MAO-A; type: biochemical; details: read-out: inhibition of MAO-A
T1 construct: from tissue; host or cells: rat brain homogenate, 4500 g pellet
T1 sequence (P21396 1-526): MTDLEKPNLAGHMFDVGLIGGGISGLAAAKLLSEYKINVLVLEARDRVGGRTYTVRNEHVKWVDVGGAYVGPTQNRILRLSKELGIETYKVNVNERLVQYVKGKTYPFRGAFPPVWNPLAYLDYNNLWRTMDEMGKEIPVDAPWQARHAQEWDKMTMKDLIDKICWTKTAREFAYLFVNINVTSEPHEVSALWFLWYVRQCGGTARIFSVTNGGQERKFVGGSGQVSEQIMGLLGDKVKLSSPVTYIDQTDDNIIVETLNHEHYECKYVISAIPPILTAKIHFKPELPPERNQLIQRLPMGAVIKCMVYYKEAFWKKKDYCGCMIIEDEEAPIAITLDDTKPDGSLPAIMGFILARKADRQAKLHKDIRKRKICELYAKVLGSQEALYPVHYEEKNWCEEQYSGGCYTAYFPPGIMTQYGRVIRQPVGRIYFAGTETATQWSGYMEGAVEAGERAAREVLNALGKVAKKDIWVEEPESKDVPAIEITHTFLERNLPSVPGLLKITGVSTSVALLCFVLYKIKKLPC
Method: Rats were decapitated and the brains were quickly taken into a weighted ice-cold sucrose buffer (0.32 M), and their weights were determined. All subsequent procedures were performed at 0-4° C. The brains were homogenized in 0.25 M sucrose (one part tissue to 20 parts sucrose) in a Teflon glass homogenizer followed by the addition of sucrose buffer to a final concentration of 10% homogenate. The homogenates were centrifuged at 600 g for 15 min. The supernatant fraction was taken out and centrifuged at 4500 g for 30 min, the pellet was diluted in 0.32 M sucrose buffer and kept frozen for later assaying of MAO. Protein concentration was determined with Bradford reagent at 595 nm, using bovine serum albumin as a standard.
The test compound was added to a suitable dilution of the enzyme preparation (70 μg protein for MAO-B and 150 μg MAO-A assay) in 0.05 M phosphate buffer (pH 7.4). The mixture was incubated together with […], a specific inhibitor of MAO-B (for determination of MAO-A) or […] clorgylin, a specific inhibitor of MAO-A (for determination of MAO-B). Incubation was carried for 1 h at 37° C. before addition of ^14C-5-hydroxytryptamine binoxalate ([…]) for determination of MAO-A, or ^14C-phenylethylamine 100 µM for determination of MAO-B, and incubation continued for 30 min or 20 min, respectively. The reaction was stopped with 2 M ice-cold citric acid, and the metabolites were extracted and determined by liquid-scintillation counting in cpm units.
MAO-A and MAO-B activities were determined in rat brain homogenate in vitro following incubation with varying concentrations of the test compounds.
In another experiment, the in vitro inhibitory activity of HLA20, M32, VK-28, M30, M31, and propargylamine (P) was tested against rat brain MAO-A. The test compounds were added to buffer containing 10^−7M deprenyl and were incubated with the tissue homogenate for 60 min at 37° C. before addition of ^14C-5-hydroxytryptamine. MAO-A activity in presence of the test compound was expressed as a percentage of that in control samples.

| Structure (SMILES) | logD ([1]; H2O, read-out: LogD in H2O) | D in 0.01N HCl ([1]; distribution ratio D = Corg/Caq, 0.01N HCl) | D in 0.01N NaOH ([1]; distribution ratio D = Corg/Caq, 0.01N NaOH) | D in H2O ([1]; distribution ratio D = Corg/Caq, H2O) | logD ([1]; pH 2, 0.01N HCl, read-out: LogD in 0.01N HCl) | logD ([1]; pH 12, 0.01N NaOH, read-out: LogD in 0.01N NaOH) | inhibition at 100 µM (rat brain MAO-A) [%] | inhibition at 100 µM (rat brain MAO-A; 100 μM) [%] |
| --- | --- | --- | --- | --- | --- | --- | --- | --- |
| C#CCN1CCN(Cc2ccc(O)c3ncccc23)CC1 [HLA20, 5-(4-propargylpiperazin-1-ylmethyl)-8-hydroxyquinoline] | 1.57 | 0.025 | 0.70 | 37.02 | -1.6 | -0.16 | 26.1 | – |
| OCCN1CCN(Cc2ccc(O)c3ncccc23)CC1 [VK-28, 5-[4-(2-hydroxyethyl)piperazin-1-ylmethyl]-8-hydroxyquinoline, reference compound] | – | – | – | – | – | – | – | 15.1 |
